{"source": "paper PMC9574855", "about": "(Journal of Medicinal Chemistry, 2022)", "key": {"[1]": {"target": "T1, PIKfyve (Homo sapiens, UniProt Q9Y2I7)", "T1 sequence (Q9Y2I7 whole entry)": "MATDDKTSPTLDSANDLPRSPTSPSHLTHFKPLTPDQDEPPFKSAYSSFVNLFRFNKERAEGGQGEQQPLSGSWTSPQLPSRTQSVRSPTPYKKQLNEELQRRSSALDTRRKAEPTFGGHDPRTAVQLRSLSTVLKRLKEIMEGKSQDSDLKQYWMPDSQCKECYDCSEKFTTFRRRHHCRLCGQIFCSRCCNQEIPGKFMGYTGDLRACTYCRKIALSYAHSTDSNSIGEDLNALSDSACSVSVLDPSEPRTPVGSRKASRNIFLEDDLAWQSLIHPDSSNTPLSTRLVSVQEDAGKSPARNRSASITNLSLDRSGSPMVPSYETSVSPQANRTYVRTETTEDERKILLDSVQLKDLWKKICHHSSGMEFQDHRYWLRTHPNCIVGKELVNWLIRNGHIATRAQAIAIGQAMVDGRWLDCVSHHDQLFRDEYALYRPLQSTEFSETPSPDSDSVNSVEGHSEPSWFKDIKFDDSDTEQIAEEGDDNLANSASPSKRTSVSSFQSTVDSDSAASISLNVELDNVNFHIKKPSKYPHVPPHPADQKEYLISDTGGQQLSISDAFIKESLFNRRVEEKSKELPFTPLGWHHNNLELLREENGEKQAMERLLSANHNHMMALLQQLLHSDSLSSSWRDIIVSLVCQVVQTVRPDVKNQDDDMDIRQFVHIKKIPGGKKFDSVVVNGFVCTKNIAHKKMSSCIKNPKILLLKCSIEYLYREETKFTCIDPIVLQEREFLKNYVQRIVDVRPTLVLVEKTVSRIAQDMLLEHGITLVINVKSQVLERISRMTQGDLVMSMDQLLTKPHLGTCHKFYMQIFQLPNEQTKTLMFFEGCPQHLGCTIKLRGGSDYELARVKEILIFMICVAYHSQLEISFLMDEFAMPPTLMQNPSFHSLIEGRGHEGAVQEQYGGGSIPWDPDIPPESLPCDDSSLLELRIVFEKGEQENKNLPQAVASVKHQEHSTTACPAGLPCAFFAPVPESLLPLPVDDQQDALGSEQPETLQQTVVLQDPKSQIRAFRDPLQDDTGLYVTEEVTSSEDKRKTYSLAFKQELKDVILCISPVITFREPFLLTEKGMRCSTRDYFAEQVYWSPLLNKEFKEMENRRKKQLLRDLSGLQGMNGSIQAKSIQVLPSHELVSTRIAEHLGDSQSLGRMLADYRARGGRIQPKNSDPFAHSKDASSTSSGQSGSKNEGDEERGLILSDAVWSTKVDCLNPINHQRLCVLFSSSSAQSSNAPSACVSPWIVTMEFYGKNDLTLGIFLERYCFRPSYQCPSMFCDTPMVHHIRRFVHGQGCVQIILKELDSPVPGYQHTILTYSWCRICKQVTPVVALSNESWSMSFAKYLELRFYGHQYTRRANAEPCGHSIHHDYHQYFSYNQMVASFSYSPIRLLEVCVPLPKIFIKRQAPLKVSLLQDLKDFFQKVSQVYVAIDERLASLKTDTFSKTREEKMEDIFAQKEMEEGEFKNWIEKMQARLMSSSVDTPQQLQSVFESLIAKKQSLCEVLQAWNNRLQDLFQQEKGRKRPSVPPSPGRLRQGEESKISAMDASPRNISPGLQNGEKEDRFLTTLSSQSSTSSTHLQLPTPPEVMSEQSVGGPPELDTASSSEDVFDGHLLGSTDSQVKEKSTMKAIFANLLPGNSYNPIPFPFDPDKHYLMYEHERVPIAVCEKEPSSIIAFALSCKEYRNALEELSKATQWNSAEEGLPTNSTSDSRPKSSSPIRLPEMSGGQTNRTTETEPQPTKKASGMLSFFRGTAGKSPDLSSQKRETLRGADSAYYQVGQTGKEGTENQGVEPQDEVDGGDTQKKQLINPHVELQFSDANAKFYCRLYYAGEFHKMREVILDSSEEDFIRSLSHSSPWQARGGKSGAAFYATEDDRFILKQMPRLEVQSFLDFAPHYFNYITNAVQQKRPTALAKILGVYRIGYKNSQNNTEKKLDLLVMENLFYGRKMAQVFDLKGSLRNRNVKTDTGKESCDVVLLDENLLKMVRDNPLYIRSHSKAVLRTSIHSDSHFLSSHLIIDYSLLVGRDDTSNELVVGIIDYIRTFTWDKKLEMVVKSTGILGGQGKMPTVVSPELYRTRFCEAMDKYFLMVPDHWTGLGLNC", "assay": "cell-based"}, "[2]": {"system": "SARS-CoV-2-nLuc", "assay": "microbe, parasite or virus in culture", "assay_type": "cell-based"}, "[3]": {"system": "MHV-nLuc virus", "assay": "microbe, parasite or virus in culture", "assay_type": "cell-based, mouse hepatitis virus (MHV)", "details": "for IC50: Murine coronavirus, read-out: MHV replication pIC50 (converted); for inhibition of viral replication (MHV-nLuc), in words: DBT cells"}, "[4]": {"system": "His6-SARS-CoV-2 spike protein uptake by HEK293T-ACE2 cells", "assay": "Spike uptake assay in HEK293T-ACE2 cells", "assay_type": "cell-based, human", "details": "1 μM"}, "[5]": {"system": "His6-SARS-CoV-2 spike protein uptake by Calu-3 cells", "assay": "Spike uptake assay in Calu-3 cells", "assay_type": "cell-based", "details": "1 μM"}, "[6]": {"system": "403 WT human kinases", "details": "1 μM, published data, apilimod; cited from earlier work"}, "[7]": {"system": "bald GFP lentivirus", "assay_type": "cell-based", "details": "Calu-3 cells, 1 μM"}, "[8]": {"system": "SH-SY5Y cells", "assay": "Lysosomal staining", "assay_type": "cell-based, human", "details": "5 μM, 24 h"}, "[9]": {"system": "His6-SARS-CoV-2 spike protein uptake by Caco-2 cells", "assay": "Spike uptake assay in Caco-2 cells", "assay_type": "cell-based", "details": "1 μM"}, "[10]": {"system": "lentivirus pseudotyped with the SARS-CoV-2 spike glycoprotein", "assay_type": "cell-based", "details": "Calu-3 cells, 1 μM"}, "[11]": {"system": "DBT cells", "assay": "LDH cell viability assay in DBT cells", "assay_type": "cell-based, mouse", "details": "up to 10 μM"}, "[12]": {"system": "403 WT human kinases", "assay": "DiscoverX scanMAX kinome-wide selectivity at 1 μM", "assay_type": "binding"}, "[13]": {"system": "A549-ACE2 cells", "details": "LDH assay"}, "[14]": {"system": "ITPK1", "details": "300 nM, KiNativ, Jurkat cell lysate; cited from earlier work"}, "[15]": {"system": "24 human lipid kinases and 83 human protein kinases", "details": "300 nM, KiNativ; cited from earlier work"}, "[16]": {"system": "LOK", "details": "300 nM, KiNativ, Jurkat cell lysate; cited from earlier work"}, "[17]": {"target": "T2, MYLK4 (Homo sapiens, UniProt Q86YV6)", "T2 sequence (Q86YV6 1-388)": "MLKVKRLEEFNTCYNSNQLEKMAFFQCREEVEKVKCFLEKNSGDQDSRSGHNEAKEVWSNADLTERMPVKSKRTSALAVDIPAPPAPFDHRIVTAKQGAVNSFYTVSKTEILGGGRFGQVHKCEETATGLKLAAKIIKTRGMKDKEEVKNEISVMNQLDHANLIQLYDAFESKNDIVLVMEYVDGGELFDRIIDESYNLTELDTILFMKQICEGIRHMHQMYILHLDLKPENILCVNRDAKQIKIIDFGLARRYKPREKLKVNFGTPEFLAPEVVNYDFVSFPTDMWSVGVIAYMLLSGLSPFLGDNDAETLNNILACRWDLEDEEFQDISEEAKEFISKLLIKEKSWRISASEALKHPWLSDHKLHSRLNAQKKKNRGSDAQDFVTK", "assay": "NanoBRET assay", "assay_type": "cell-based"}, "[18]": {"target": "T1, PIKfyve", "assay": "biochemical", "assay_type": "biochemical"}, "[19]": {"system": "small panel of understudied kinases", "assay": "Eurofins enzymatic profiling in targeted kinase panel", "assay_type": "biochemical, human", "details": "1 μM, Table S2 panel"}, "[20]": {"details": "PIKfyve NB IC50, NanoBRET, HEK293 cells"}}, "note": "Like-named read-outs stand apart in the source and are kept apart here."}
{"compound": "CCC(O)(C#Cc1ccc2[nH]c3c(c2c1)-c1nc(N)ncc1CCC3)CC", "note": "[compound 26, 1-(2-Amino-5,6,7,8-tetrahydropyrimido[4′,5′:3,4]cyclohepta[1,2-b]indol-11-yl)-3-ethylpent-1-yn-3-ol]", "values": [{"measurement": "IC50", "setting": "[1]; [20]", "value": "< 20", "unit": "nM"}, {"measurement": "IC50", "setting": "[2]; Severe acute respiratory syndrome coronavirus 2, A549-ACE2, 46 h, read-out: SARS-CoV-2 replication IC50", "value": 23.9, "unit": "nM"}, {"measurement": "IC50", "setting": "[3]", "value": 74.1, "unit": "nM"}]}
{"compound": "CCC(=O)Nc1cc(Nc2cc(NC3CC3)n3ncc(C#N)c3n2)ccc1C", "note": "[SGC-CK2-1, reference compound]", "values": [{"measurement": "His6-SARS-CoV-2 spike protein uptake", "setting": "[4]", "value": "efficiently decreased spike protein uptake"}]}
{"compound": "Cc1cccc(/C=N/Nc2cc(N3CCOCC3)nc(OCCc3ccccn3)n2)c1", "note": "[Apilimod, 4-(6-(2-(3-Methylbenzylidene)hydrazinyl)-2-(2-(pyridin-2-yl)ethoxy)pyrimidin-4-yl)morpholine, reference compound]", "values": [{"measurement": "His6-SARS-CoV-2 spike protein uptake", "setting": "[5]", "value": "efficiently reduced spike protein uptake"}, {"measurement": "His6-SARS-CoV-2 spike protein uptake", "setting": "[4]", "value": "significantly reduced spike protein uptake"}, {"measurement": "# scanMAX kinases with PoC < 10", "setting": "[6]", "value": 1}, {"measurement": "entry of bald lentivirus", "setting": "[7]", "value": "entry of bald lentivirus was not impacted"}, {"measurement": "vacuoles in LysoTracker-stained cells", "setting": "[8]", "value": "vacuoles are present"}, {"measurement": "His6-SARS-CoV-2 spike protein uptake", "setting": "[9]", "value": "efficiently reduced spike protein uptake"}, {"measurement": "entry of lentivirus pseudotyped with SARS-CoV-2 spike glycoprotein", "setting": "[10]", "value": "inhibition of pseudoviral entry"}]}
{"compound": "Nc1ncc2c(n1)-c1c([nH]c3ccc(C4CC4)cc13)CCCC2", "note": "[compound 30, 12-Cyclopropyl-6,7,8,9-tetrahydro-5H-pyrimido[4′,5′:3,4]cycloocta[1,2-b]indol-2-amine]", "values": [{"measurement": "effect on cell viability in DBT cells", "setting": "[11]", "value": "nontoxic up to 10 μM"}, {"measurement": "# scanMAX kinases with PoC < 10", "setting": "[12]", "value": 1}, {"measurement": "inhibition of SARS-CoV-2 replication, in words", "setting": "[2]; A549-ACE2 cells", "value": "did not inhibit SARS-CoV-2 replication"}, {"measurement": "His6-SARS-CoV-2 spike protein uptake", "setting": "[4]", "value": "no effect on spike protein uptake"}, {"measurement": "entry of bald lentivirus", "setting": "[7]", "value": "entry of bald lentivirus was not impacted"}, {"measurement": "inhibition of viral replication (MHV-nLuc), in words", "setting": "[3]", "value": "failed to inhibit viral replication"}, {"measurement": "IC50", "setting": "[3]", "value": 10000, "unit": "nM"}, {"measurement": "entry of lentivirus pseudotyped with SARS-CoV-2 spike glycoprotein", "setting": "[10]", "value": "did not inhibit pseudoviral entry"}, {"measurement": "toxicity to A549-ACE2 cells", "setting": "[13]", "value": "did not inhibit SARS-CoV-2 replication or elicit any toxicity"}]}
{"compound": "Cc1cccc(/C=N/Nc2cc(N3CCOCC3)n3nc(-c4ccncc4)cc3n2)c1", "note": "[APY0201, 2-[7-(4-morpholinyl)-2-(4-pyridinyl)pyrazolo[1,5-a]pyrimidin-5-yl]hydrazone, 3-methyl-benzaldehyde]", "values": [{"measurement": "inhibition of ITPK1", "setting": "[14]", "value": "> 50", "unit": "%"}, {"measurement": "Gini coefficient", "setting": "[15]", "value": 0.753}, {"measurement": "inhibition of LOK", "setting": "[16]", "value": "> 50", "unit": "%"}]}
{"compound": "CN(C)CC#Cc1ccc2[nH]c3c(c2c1)-c1nc(N)ncc1CCC3", "note": "[compound 17, 11-(3-(Dimethylamino)prop-1-yn-1-yl)-5,6,7,8-tetrahydropyrimido[4′,5′:3,4]cyclohepta[1,2-b]indol-2-amine]", "values": [{"measurement": "His6-SARS-CoV-2 spike protein uptake", "setting": "[5]", "value": "efficiently reduced spike protein uptake"}, {"measurement": "effect on cell viability in DBT cells", "setting": "[11]", "value": "no significant effect on cell viability up to 10 μM"}, {"measurement": "IC50", "setting": "[1]; PIKfyve NanoBRET IC50, bound stated with SGC probe criteria", "value": "< 1000", "unit": "nM"}, {"measurement": "His6-SARS-CoV-2 spike protein uptake", "setting": "[4]", "value": "significantly reduced spike protein uptake"}, {"measurement": "entry of bald lentivirus", "setting": "[7]", "value": "entry of bald lentivirus was not impacted"}, {"measurement": "vacuoles in LysoTracker-stained cells", "setting": "[8]", "value": "vacuoles are present"}, {"measurement": "IC50", "setting": "[17]", "value": 265, "unit": "nM"}, {"measurement": "IC50", "setting": "[18]", "value": "< 100", "unit": "nM"}, {"measurement": "His6-SARS-CoV-2 spike protein uptake", "setting": "[9]", "value": "efficiently reduced spike protein uptake"}, {"measurement": "entry of lentivirus pseudotyped with SARS-CoV-2 spike glycoprotein", "setting": "[10]", "value": "inhibition of pseudoviral entry"}]}
{"compound": "Nc1ncc2c(n1)-c1c([nH]c3ccc(-c4ccc(F)cc4)cc13)CCC2", "note": "[compound 8, 11-(4-Fluorophenyl)-5,6,7,8-tetrahydropyrimido[4′,5′:3,4]cyclohepta[1,2-b]indol-2-amine]", "values": [{"measurement": "effect on cell viability in DBT cells", "setting": "[11]", "value": "no significant effect on cell viability up to 10 μM"}, {"measurement": "# scanMAX kinases with PoC < 10", "setting": "[12]", "value": 2}, {"measurement": "highest inhibition of any kinase in the targeted enzymatic panel", "setting": "[19]", "value": "≤ 55", "unit": "%"}, {"measurement": "His6-SARS-CoV-2 spike protein uptake", "setting": "[4]", "value": "significantly reduced spike protein uptake"}, {"measurement": "entry of bald lentivirus", "setting": "[7]", "value": "entry of bald lentivirus was not impacted"}, {"measurement": "vacuoles in LysoTracker-stained cells", "setting": "[8]", "value": "vacuoles are present"}, {"measurement": "selectivity over all other kinases evaluated", "setting": "[18]; versus PIKfyve enzymatic and NanoBRET IC50 values", "value": "> 415", "unit": "fold"}, {"measurement": "inhibition of viral replication (MHV-nLuc), in words", "setting": "[3]", "value": "inhibited viral replication"}, {"measurement": "entry of lentivirus pseudotyped with SARS-CoV-2 spike glycoprotein", "setting": "[10]", "value": "inhibition of pseudoviral entry"}]}
{"compound": "CCC(C)(O)C#Cc1ccc2[nH]c3c(c2c1)-c1nc(N)ncc1CCC3", "note": "(stereo not drawn) [compound 25, 1-(2-Amino-5,6,7,8-tetrahydropyrimido[4′,5′:3,4]cyclohepta[1,2-b]indol-11-yl)-3-methylpent-1-yn-3-ol]", "values": [{"measurement": "IC50", "setting": "[1]; [20]", "value": "< 20", "unit": "nM"}]}
{"compound": "CC(C)(O)CC#Cc1ccc2[nH]c3c(c2c1)-c1nc(N)ncc1CCC3", "note": "[compound 24, 5-(2-Amino-5,6,7,8-tetrahydropyrimido[4′,5′:3,4]cyclohepta[1,2-b]indol-11-yl)-2-methylpent-4-yn-2-ol]", "values": [{"measurement": "# scanMAX kinases with PoC < 10", "setting": "[12]", "value": "11–14"}]}
{"compound": "COC(C)(C)C#Cc1ccc2[nH]c3c(c2c1)-c1nc(N)ncc1CCC3", "note": "[compound 20, 11-(3-Methoxy-3-methylbut-1-yn-1-yl)-5,6,7,8-tetrahydropyrimido[4′,5′:3,4]cyclohepta[1,2-b]indol-2-amine]", "values": [{"measurement": "# scanMAX kinases with PoC < 10", "setting": "[12]", "value": "11–14"}]}
{"compound": "Nc1ncc2c(n1)-c1c([nH]c3ccc(C#Cc4ccncc4)cc13)CC2", "note": "[compound 4, 10-(Pyridin-4-ylethynyl)-6,7-dihydro-5H-pyrimido[5,4-c]carbazol-2-amine]", "values": [{"measurement": "# scanMAX kinases with PoC < 10", "setting": "[12]", "value": 1}]}
{"compound": "CC(C)C(O)C#Cc1ccc2[nH]c3c(c2c1)-c1nc(N)ncc1CC3", "note": "(stereo not drawn) [compound 10, 1-(2-Amino-6,7-dihydro-5H-pyrimido[5,4-c]carbazol-10-yl)-4-methylpent-1-yn-3-ol]", "values": [{"measurement": "# scanMAX kinases with PoC < 10", "setting": "[12]", "value": 11}]}
{"compound": "CC(O)C#Cc1ccc2[nH]c3c(c2c1)-c1nc(N)ncc1CCC3", "note": "(stereo not drawn) [compound 21, 4-(2-Amino-5,6,7,8-tetrahydropyrimido[4′,5′:3,4]cyclohepta[1,2-b]indol-11-yl)but-3-yn-2-ol]", "values": [{"measurement": "IC50", "setting": "[1]; [20]", "value": "< 20", "unit": "nM"}]}
